Laboratory results reported in PubChem BioAssay (NCI).
Several values for one entry are separate records, joined by “and”; a condition that tells them apart may be missing. Identical values can stand only once.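 Step 1: Grow cells in 96-well plates. Step 2: Expose to compound for 48 hours at 5 concentrations. Step 3: Interpolate endpoints linearly; if unreached, use highest concentration. Abbreviation: GI50, concentration required for 50% inhibition of growth. Definition used: TGI = concentration required for complete inhibition of growth.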

Tests used:
Experiment in all cases: growth of human tumour cells (NCI), 48 h
MDA-N = system: MDA-N
DMS 114 small cell lung = system: DMS 114 small cell lung
M19-MEL melanoma = system: M19-MEL melanoma
LXFL 529 NSCLC = system: LXFL 529 NSCLC
SNB-78 CNS = system: SNB-78 CNS
HOP-18 NSCLC = system: HOP-18 NSCLC
XF 498 CNS = system: XF 498 CNS
RXF-631 renal = system: RXF-631 renal
DMS 273 small cell lung = system: DMS 273 small cell lung

CN1CCc2ccccc2C1Cc1ccccc1NC(=O)c1sc2ccccc2c1Cl (configuration not stated)
TGI (MDA-N): > 100 µM

CCNCC(=O)Nc1ccc2c(c1)C(=O)c1ccc(NC(=O)CNCC)cc1C2=O
TGI (MDA-N): 18.9 µM

CCCCCCCCCCCCCCCCc1c(C(=O)OC)nc(NC#N)[nH]c1=O
TGI (DMS 114 small cell lung): > 25 µM
TGI (M19-MEL melanoma): > 25 µM
TGI (LXFL 529 NSCLC): > 25 µM
TGI (SNB-78 CNS): > 25 µM
TGI (HOP-18 NSCLC): > 25 µM
TGI (XF 498 CNS): > 25 µM
TGI (RXF-631 renal): > 25 µM

C=C(C)CC(C(=O)O)c1ccc(C)cc1 (configuration not stated)
TGI (DMS 114 small cell lung): > 100 µM
TGI (M19-MEL melanoma): > 100 µM
TGI (SNB-78 CNS): > 100 µM
TGI (DMS 273 small cell lung): > 100 µM
TGI (HOP-18 NSCLC): > 100 µM
TGI (XF 498 CNS): > 100 µM

O=C1CCCc2ccc([N+](=O)[O-])c(O)c21
TGI (DMS 114 small cell lung): > 100 µM
TGI (M19-MEL melanoma): > 100 µM
TGI (LXFL 529 NSCLC): > 100 µM
TGI (SNB-78 CNS): > 100 µM
TGI (DMS 273 small cell lung): > 100 µM

O=S(O)O.O=S(O)O.[Co].[NH2-].[NH2-].[NH2-].[NH2-]
GI50 (MDA-N): > 100000 nM
TGI (MDA-N): > 100 µM

Cn1cnc([N+](=O)[O-])c1Sc1n[nH]c(-c2ccc(Cl)cc2)n1
TGI (DMS 114 small cell lung): 49.7 µM
TGI (M19-MEL melanoma): 47.7 µM
TGI (LXFL 529 NSCLC): 36.7 µM
TGI (SNB-78 CNS): 70.7 µM
TGI (DMS 273 small cell lung): 37.3 µM
TGI (HOP-18 NSCLC): 8.3 µM
TGI (XF 498 CNS): 27.6 µM
TGI (RXF-631 renal): 59 µM

C=CCCn1nc(-c2ccccc2)oc1=O
TGI (M19-MEL melanoma): > 100 µM
TGI (LXFL 529 NSCLC): > 100 µM
TGI (SNB-78 CNS): > 100 µM
TGI (DMS 273 small cell lung): > 100 µM
TGI (HOP-18 NSCLC): > 100 µM
TGI (XF 498 CNS): > 100 µM

CC1(C)C(=O)/C=C\C(=O)C(C)(C)C2=CC=C(O2)C(C)(C)C(=O)C(Br)C(Br)C(=O)C(C)(C)C2=CC=C1O2 (configuration not stated)
TGI (MDA-N): > 100 µM
TGI (DMS 114 small cell lung): > 31.6 µM
TGI (M19-MEL melanoma): > 100 µM
TGI (LXFL 529 NSCLC): > 100 µM
TGI (SNB-78 CNS): > 100 µM
TGI (DMS 273 small cell lung): > 100 µM
TGI (HOP-18 NSCLC): > 100 µM
TGI (XF 498 CNS): > 100 µM
TGI (RXF-631 renal): > 100 µM

c1cc[c]([Ge]([O]c2cccc3cccnc23)([c]2ccccc2)[c]2ccccc2)cc1
GI50 (DMS 114 small cell lung): 2320 nM
TGI (DMS 114 small cell lung): 5.06 µM
GI50 (M19-MEL melanoma): 3.46 µM
TGI (M19-MEL melanoma): 12.1 µM
GI50 (LXFL 529 NSCLC): 2310 nM
TGI (LXFL 529 NSCLC): 5.27 µM
GI50 (SNB-78 CNS): 4.34 µM
TGI (SNB-78 CNS): 17.7 µM
GI50 (DMS 273 small cell lung): 3.46 µM
TGI (DMS 273 small cell lung): 12.4 µM
GI50 (HOP-18 NSCLC): 1260 nM
TGI (HOP-18 NSCLC): 8.37 µM

C[C@]12Cc3conc3C(O)=C1CC[C@@H]1C2CC[C@@]2(C)C1CC[C@@H]2O (some centres not stated)
TGI (M19-MEL melanoma): 74.5 µM
TGI (LXFL 529 NSCLC): 33.5 µM
TGI (SNB-78 CNS): > 100 µM
TGI (DMS 273 small cell lung): 25.2 µM
TGI (HOP-18 NSCLC): > 100 µM
TGI (XF 498 CNS): 33.9 µM

COc1ccc(/C=C/c2onc3c(=O)n(C)nc(-c4ccccc4)c23)cc1
TGI (DMS 114 small cell lung): > 100 µM
TGI (M19-MEL melanoma): > 100 µM
TGI (LXFL 529 NSCLC): > 100 µM
TGI (DMS 273 small cell lung): > 100 µM
TGI (HOP-18 NSCLC): > 100 µM
TGI (XF 498 CNS): > 100 µM

NC1=NN(c2ccccc2)C(=O)C1C(=O)C(=O)Nc1ccccc1 (configuration not stated)
TGI (DMS 114 small cell lung): > 100 µM
TGI (M19-MEL melanoma): > 100 µM
TGI (LXFL 529 NSCLC): > 100 µM
TGI (SNB-78 CNS): > 100 µM
TGI (DMS 273 small cell lung): > 100 µM
TGI (HOP-18 NSCLC): > 100 µM
TGI (XF 498 CNS): > 100 µM

CC1OC(n2cc(F)c(=O)[nH]c2=O)CCC1=O (configuration not stated)
TGI (DMS 114 small cell lung): > 100 µM
TGI (M19-MEL melanoma): > 100 µM
TGI (LXFL 529 NSCLC): > 100 µM
TGI (SNB-78 CNS): > 100 µM
TGI (DMS 273 small cell lung): > 100 µM
TGI (HOP-18 NSCLC): > 100 µM
TGI (RXF-631 renal): > 100 µM

N#CC(Sc1ccccc1)C(N)=O (configuration not stated)
TGI (DMS 114 small cell lung): > 100 µM
TGI (M19-MEL melanoma): > 100 µM
TGI (LXFL 529 NSCLC): > 100 µM
TGI (SNB-78 CNS): > 100 µM
TGI (DMS 273 small cell lung): > 100 µM
TGI (HOP-18 NSCLC): > 100 µM
TGI (XF 498 CNS): > 100 µM
TGI (RXF-631 renal): > 100 µM

O=CCCn1[nH]c(=O)ccc1=O
TGI (DMS 114 small cell lung): > 100 µM
TGI (M19-MEL melanoma): > 100 µM
TGI (SNB-78 CNS): > 100 µM
TGI (DMS 273 small cell lung): > 100 µM

Nc1nc(-c2cccnc2)cc(-c2cc(-c3cccnc3)nc(N)n2)n1
TGI (MDA-N): > 100 µM

O=C(O)c1cnc2c(ccc3[nH]cccc32)c1=O
TGI (DMS 114 small cell lung): > 100 µM
TGI (M19-MEL melanoma): > 100 µM
TGI (LXFL 529 NSCLC): > 100 µM
TGI (SNB-78 CNS): > 100 µM
TGI (DMS 273 small cell lung): > 100 µM
TGI (HOP-18 NSCLC): > 100 µM

CC(=O)N1c2ccccc2N(C(C)=O)C1c1ccc(C2N(C(C)=O)c3ccccc3N2C(C)=O)[nH]1
TGI (DMS 114 small cell lung): > 100 µM
TGI (M19-MEL melanoma): > 100 µM
TGI (LXFL 529 NSCLC): > 100 µM
TGI (DMS 273 small cell lung): > 100 µM
TGI (XF 498 CNS): > 100 µM
TGI (RXF-631 renal): > 100 µM

O=CN/C=C/c1ccccc1
TGI (M19-MEL melanoma): > 100 µM
TGI (LXFL 529 NSCLC): > 100 µM
TGI (SNB-78 CNS): > 100 µM
TGI (DMS 273 small cell lung): > 100 µM
TGI (HOP-18 NSCLC): > 100 µM
TGI (RXF-631 renal): > 100 µM

C[C@@H]1CC[C@@]2(C)OC(c3ccccc3)[C@H](CO)N2C1=O (some centres not stated)
TGI (DMS 114 small cell lung): > 100 µM
TGI (M19-MEL melanoma): > 100 µM
TGI (SNB-78 CNS): > 100 µM
TGI (DMS 273 small cell lung): > 100 µM
TGI (HOP-18 NSCLC): > 100 µM
TGI (XF 498 CNS): > 100 µM

COc1ccc2cc3c4cc(OC)c(OC)cc4ccn3c2c1
TGI (DMS 114 small cell lung): > 100 µM
TGI (M19-MEL melanoma): > 100 µM
TGI (LXFL 529 NSCLC): > 100 µM
TGI (SNB-78 CNS): > 100 µM
TGI (DMS 273 small cell lung): > 100 µM
TGI (HOP-18 NSCLC): > 100 µM
TGI (XF 498 CNS): > 100 µM

CC(=O)OCC1OC(SC2=N/C(=C\c3ccc(Br)s3)C(=O)N2c2ccccc2)C(OC(C)=O)C(OC(C)=O)C1OC(C)=O (configuration not stated)
TGI (MDA-N): > 100 µM

CC(=O)O[C@@H]1c2c(c3c(=O)c4cccc(O)c4c(=O)c=3c2=[N+]=[N-])[C@H](OC(C)=O)[C@@H](OC(C)=O)[C@]1(C)O
GI50 (MDA-N): 235 nM
TGI (MDA-N): 1.05 µM and 0.733 µM

O=S1Nc2cccc(C(F)(F)F)c2S1 (configuration not stated)
TGI (DMS 114 small cell lung): 83.2 µM
TGI (M19-MEL melanoma): > 100 µM
TGI (LXFL 529 NSCLC): > 100 µM
TGI (SNB-78 CNS): > 100 µM
TGI (DMS 273 small cell lung): > 100 µM
TGI (HOP-18 NSCLC): > 100 µM
TGI (XF 498 CNS): 98.7 µM

O/N=C1/CCCC/C1=C\c1ccc(Cl)c(Cl)c1
TGI (DMS 114 small cell lung): 59.8 µM
TGI (M19-MEL melanoma): > 100 µM
TGI (LXFL 529 NSCLC): 54.4 µM
TGI (SNB-78 CNS): 70.5 µM
TGI (DMS 273 small cell lung): 63.1 µM
TGI (HOP-18 NSCLC): 59.8 µM
TGI (XF 498 CNS): 46.4 µM

COc1ccc(C2(Cl)C(Cl)(C(F)(F)F)C2(Cl)C(F)(F)F)cc1 (configuration not stated)
TGI (DMS 114 small cell lung): 25 µM
TGI (M19-MEL melanoma): 26.5 µM
TGI (LXFL 529 NSCLC): 27.1 µM
TGI (SNB-78 CNS): 29.7 µM
TGI (DMS 273 small cell lung): 27.4 µM
TGI (HOP-18 NSCLC): 28.6 µM
TGI (XF 498 CNS): 25.5 µM
TGI (RXF-631 renal): 30.3 µM
